Experiments:
[1] = test system: multiple myeloma cell lines (t(4;14) and non-t(4;14)); assay: 14 day LTP assay in multiple myeloma cells; assay type: cell-based, human; conditions: FIG. 1 scatter graph
KMS-11 tumor = assay: Anti-tumor activity in human myeloma KMS-11 tumor-bearing NOD SCID mice (subcutaneous xenograft); assay type: in vivo
Source text: Evaluation of the Anti-Tumor Activity of Cpd. […] Based on the tumor volume and body weight, mice were assigned to respective groups such that the average starting tumor size and body weight was the same for each treatment group. […] The tumor cells were routinely subcultured before confluence, not to exceed 4-5 passages. The cells growing in an exponential growth phase were harvested and counted for tumor inoculation. […] The treatment was started when the mean tumor size reached 118 mm^3. Mice were then assigned to groups such that the mean tumor volume was the same for each treatment group and time point. […] Tumor Measurements The measurement of tumor size was conducted twice weekly with a caliper and the tumor volume (mm3) is estimated using the formula: TV=a×b×b/2, where “a” and “b” are long and short diameters of a tumor, respectively. The TVs are used for calculation of the tumor growth inhibition and tumor growth delay. […] The “[…]” and “TVinitial” are the mean tumor volumes on the final day and initial day of dosing. After take down 5 mice of G2 G5 post the final dosing, the remaining mice were maintained for monitoring tumor outgrowth twice weekly. […] Animals showing obvious signs of severe distress and/or pain were humanely sacrificed by carbon dioxide followed by cervical dislocation to ensure death. Samples Collection Tumor samples and plasma were collect at the indicated day. Data Acquisition and Statistical Analysis Data Acquisition: Protocol-required measurements and observations were recorded manually on appropriate forms, or directly on a computerized database. Statistical Analysis: All statistical tests were conducted, and the level of significance was set at 5% or P<0.05. The group means, standard deviation were calculated for all measurement parameters as study designed. Two-way RM ANOVA followed by Tukeys post hoc comparisons of the means. The therapeutic effects of compound as a single agent in the KMS-11 subcutaneous xenograft model were evaluated.

KMS-34 cells = assay: 14 day KMS-34 long term proliferation (LTP) assay; conditions: KMS-34, t(4;14) multiple myeloma cell line; 14-day assay; FIG. 2
Experimental: 14 Day KMS-34 Long Term Proliferation (LTP) Assay
Incubate plates for 96 hrs.
The final concentration is 1 μm.
To calculate growth for days 4, 7, 11, and 14:
1. Calculate the split factor for day 4 to 7, day 7 to 11, and day 11-14 The split factor is the viable cells/mL on Day X (either 4, 7, or 11) divided by the density the cells are being split back to.
2. For growth of cells from day 4 to 7, multiply the day 7 viable cells/mL density by the split factor from day 4.
4. For growth of cells from Day 11 to 14, multiply the Day 14 viable cells/mL density by the days 4, 7, and 11 split factors.
5. Plot growth on semi-log chart (viable cells/mL on Y axis, in log, and days on X axis).
From 5 mM to 0.25 μm. […] Mix well by pipetting up and down.

[2] = G2, 31.25 mg/kg, p.o., BID × 28 days, PG-Day 25

## CC(=O)N1CCN([C@H]2CCC[C@@H](NC(=O)c3cc4c(F)ccc(C)c4[nH]3)C2)CC1 [Cpd. No. 15, N-((1R,3S)-3-(4-acetylpiperazin-1-yl)cyclohexyl)-4-fluoro-7-methyl-1H-indole-2-carboxamide]
[1]
  anti-proliferative effects in t(4;14) and non-t(4;14) multiple myeloma cell lines: selective anti-proliferative effects
KMS-11 tumor; G2, 31.25 mg/kg p.o. BID 28 days, PG-D1 (D 7)
  Tumor volume (Mean ± SEM): 119 ± 6 mm3
KMS-11 tumor; G2, 31.25 mg/kg p.o. BID 28 days, PG-D4 (D 10)
  Tumor volume (Mean ± SEM): 225 ± 21 mm3
KMS-11 tumor; G2, 31.25 mg/kg p.o. BID 28 days, PG-D7 (D 13)
  Tumor volume (Mean ± SEM): 271 ± 19 mm3
KMS-11 tumor; G2, 31.25 mg/kg p.o. BID 28 days, PG-D11 (D 17)
  Tumor volume (Mean ± SEM): 408 ± 46 mm3
KMS-11 tumor; G2, 31.25 mg/kg p.o. BID 28 days, PG-D14 (D 20)
  Tumor volume (Mean ± SEM): 478 ± 54 mm3
KMS-11 tumor; G2, 31.25 mg/kg p.o. BID 28 days, PG-D18 (D 24)
  Tumor volume (Mean ± SEM): 609 ± 71 mm3
KMS-11 tumor; G2, 31.25 mg/kg p.o. BID 28 days, PG-D21 (D 27)
  Tumor volume (Mean ± SEM): 686 ± 80 mm3
KMS-11 tumor; G2, 31.25 mg/kg p.o. BID 28 days, PG-D25 (D 31)
  Tumor volume (Mean ± SEM): 763 ± 97 mm3
KMS-11 tumor; G2, 31.25 mg/kg p.o. BID 28 days, PG-D28 (D 34)
  Tumor volume post the final dosing (Mean ± SEM): 882 ± 131 mm3
KMS-11 tumor; G2, 31.25 mg/kg p.o. BID 28 days, PG-D32 (D 38)
  Tumor volume post the final dosing (Mean ± SEM): 1123 ± 149 mm3
KMS-11 tumor; G2, 31.25 mg/kg p.o. BID 28 days, PG-D35 (D 41)
  Tumor volume post the final dosing (Mean ± SEM): 1499 ± 196 mm3
KMS-11 tumor; G2, 31.25 mg/kg p.o. BID 28 days, PG-D39 (D 45)
  Tumor volume post the final dosing (Mean ± SEM): 1747 ± 243 mm3
KMS-11 tumor; G2, 31.25 mg/kg, p.o., BID × 28 days
  Tumor Size at PG-Day 25 (Mean ± SEM): 763 ± 97 mm3
KMS-11 tumor; [2]
  TGI: 74%
  ΔT/ΔC: 26%
KMS-11 tumor; G3, 62.5 mg/kg p.o. BID 28 days, PG-D1 (D 7)
  Tumor volume (Mean ± SEM): 117 ± 6 mm3
KMS-11 tumor; G3, 62.5 mg/kg p.o. BID 28 days, PG-D4 (D 10)
  Tumor volume (Mean ± SEM): 178 ± 11 mm3
KMS-11 tumor; G3, 62.5 mg/kg p.o. BID 28 days, PG-D7 (D 13)
  Tumor volume (Mean ± SEM): 216 ± 11 mm3
KMS-11 tumor; G3, 62.5 mg/kg p.o. BID 28 days, PG-D11 (D 17)
  Tumor volume (Mean ± SEM): 231 ± 16 mm3
KMS-11 tumor; G3, 62.5 mg/kg p.o. BID 28 days, PG-D14 (D 20)
  Tumor volume (Mean ± SEM): 184 ± 17 mm3
KMS-11 tumor; G3, 62.5 mg/kg p.o. BID 28 days, PG-D18 (D 24)
  Tumor volume (Mean ± SEM): 176 ± 22 mm3
KMS-11 tumor; G3, 62.5 mg/kg p.o. BID 28 days, PG-D21 (D 27)
  Tumor volume (Mean ± SEM): 129 ± 25 mm3
KMS-11 tumor; G3, 62.5 mg/kg p.o. BID 28 days, PG-D25 (D 31)
  Tumor volume (Mean ± SEM): 115 ± 30 mm3
KMS-11 tumor; G3, 62.5 mg/kg p.o. BID 28 days, PG-D28 (D 34)
  Tumor volume post the final dosing (Mean ± SEM): 117 ± 36 mm3
KMS-11 tumor; G3, 62.5 mg/kg p.o. BID 28 days, PG-D32 (D 38)
  Tumor volume post the final dosing (Mean ± SEM): 65 ± 23 mm3
KMS-11 tumor; G3, 62.5 mg/kg p.o. BID 28 days, PG-D35 (D 41)
  Tumor volume post the final dosing (Mean ± SEM): 150 ± 60 mm3
KMS-11 tumor; G3, 62.5 mg/kg p.o. BID 28 days, PG-D39 (D 45)
  Tumor volume post the final dosing (Mean ± SEM): 309 ± 108 mm3
KMS-11 tumor; G3, 62.5 mg/kg, p.o., BID × 28 days
  Tumor Size at PG-Day 25 (Mean ± SEM): 115 ± 30 mm3
KMS-11 tumor; G3, 62.5 mg/kg, p.o., BID × 28 days, PG-Day 25
  ΔT/ΔC: 0%
KMS-11 tumor; G4, 125 mg/kg p.o. BID 18 days then BID(3D− 4D+) 7 days, PG-D1 (D 7)
  Tumor volume (Mean ± SEM): 117 ± 6 mm3
KMS-11 tumor; G4, 125 mg/kg p.o. BID 18 days then BID(3D− 4D+) 7 days, PG-D4 (D 10)
  Tumor volume (Mean ± SEM): 191 ± 11 mm3
KMS-11 tumor; G4, 125 mg/kg p.o. BID 18 days then BID(3D− 4D+) 7 days, PG-D7 (D 13)
  Tumor volume (Mean ± SEM): 219 ± 9 mm3
KMS-11 tumor; G4, 125 mg/kg p.o. BID 18 days then BID(3D− 4D+) 7 days, PG-D11 (D 17)
  Tumor volume (Mean ± SEM): 196 ± 11 mm3
KMS-11 tumor; G4, 125 mg/kg p.o. BID 18 days then BID(3D− 4D+) 7 days, PG-D14 (D 20)
  Tumor volume (Mean ± SEM): 119 ± 10 mm3
KMS-11 tumor; G4, 125 mg/kg p.o. BID 18 days then BID(3D− 4D+) 7 days, PG-D18 (D 24)
  Tumor volume (Mean ± SEM): 99 ± 16 mm3
KMS-11 tumor; G4, 125 mg/kg p.o. BID 18 days then BID(3D− 4D+) 7 days, PG-D21 (D 27)
  Tumor volume (Mean ± SEM): 85 ± 20 mm3
KMS-11 tumor; G4, 125 mg/kg p.o. BID 18 days then BID(3D− 4D+) 7 days, PG-D25 (D 31)
  Tumor volume (Mean ± SEM): 131 ± 39 mm3
KMS-11 tumor; G4, 125 mg/kg p.o. BID 18 days then BID(3D− 4D+) 7 days, PG-D28 (D 34)
  Tumor volume post the final dosing (Mean ± SEM): 99 ± 20 mm3
KMS-11 tumor; G4, 125 mg/kg p.o. BID 18 days then BID(3D− 4D+) 7 days, PG-D32 (D 38)
  Tumor volume post the final dosing (Mean ± SEM): 239 ± 68 mm3
KMS-11 tumor; G4, 125 mg/kg p.o. BID 18 days then BID(3D− 4D+) 7 days, PG-D35 (D 41)
  Tumor volume post the final dosing (Mean ± SEM): 421 ± 108 mm3
KMS-11 tumor; G4, 125 mg/kg p.o. BID 18 days then BID(3D− 4D+) 7 days, PG-D39 (D 45)
  Tumor volume post the final dosing (Mean ± SEM): 757 ± 215 mm3
KMS-11 tumor; G4, 125 mg/kg, p.o., BID × 18 days, BID(3D− 4D+) × 7 days
  Tumor Size at PG-Day 25 (Mean ± SEM): 131 ± 39 mm3
KMS-11 tumor; G4, 125 mg/kg, p.o., BID × 18 days, BID(3D− 4D+) × 7 days, PG-Day 25
  ΔT/ΔC: 1%
KMS-11 tumor; G5, 175 mg/kg p.o. BID 11 days then BID(3D− 4D+) 14 days, PG-D1 (D 7)
  Tumor volume (Mean ± SEM): 119 ± 6 mm3
KMS-11 tumor; G5, 175 mg/kg p.o. BID 11 days then BID(3D− 4D+) 14 days, PG-D4 (D 10)
  Tumor volume (Mean ± SEM): 192 ± 13 mm3
KMS-11 tumor; G5, 175 mg/kg p.o. BID 11 days then BID(3D− 4D+) 14 days, PG-D7 (D 13)
  Tumor volume (Mean ± SEM): 221 ± 17 mm3
KMS-11 tumor; G5, 175 mg/kg p.o. BID 11 days then BID(3D− 4D+) 14 days, PG-D11 (D 17)
  Tumor volume (Mean ± SEM): 199 ± 24 mm3
KMS-11 tumor; G5, 175 mg/kg p.o. BID 11 days then BID(3D− 4D+) 14 days, PG-D14 (D 20)
  Tumor volume (Mean ± SEM): 167 ± 27 mm3
KMS-11 tumor; G5, 175 mg/kg p.o. BID 11 days then BID(3D− 4D+) 14 days, PG-D18 (D 24)
  Tumor volume (Mean ± SEM): 189 ± 32 mm3
KMS-11 tumor; G5, 175 mg/kg p.o. BID 11 days then BID(3D− 4D+) 14 days, PG-D21 (D 27)
  Tumor volume (Mean ± SEM): 214 ± 45 mm3
KMS-11 tumor; G5, 175 mg/kg p.o. BID 11 days then BID(3D− 4D+) 14 days, PG-D25 (D 31)
  Tumor volume (Mean ± SEM): 225 ± 45 mm3
KMS-11 tumor; G5, 175 mg/kg p.o. BID 11 days then BID(3D− 4D+) 14 days, PG-D28 (D 34)
  Tumor volume post the final dosing (Mean ± SEM): 269 ± 146 mm3
KMS-11 tumor; G5, 175 mg/kg p.o. BID 11 days then BID(3D− 4D+) 14 days, PG-D32 (D 38)
  Tumor volume post the final dosing (Mean ± SEM): 589 ± 378 mm3
KMS-11 tumor; G5, 175 mg/kg p.o. BID 11 days then BID(3D− 4D+) 14 days, PG-D35 (D 41)
  Tumor volume post the final dosing (Mean ± SEM): 732 ± 422 mm3
KMS-11 tumor; G5, 175 mg/kg p.o. BID 11 days then BID(3D− 4D+) 14 days, PG-D39 (D 45)
  Tumor volume post the final dosing (Mean ± SEM): 1183 ± 686 mm3
KMS-11 tumor; G5, 175 mg/kg, p.o., BID × 18 days, BID(3D− 4D+) × 14 days
  Tumor Size at PG-Day 25 (Mean ± SEM): 225 ± 45 mm3
KMS-11 tumor; G5, 175 mg/kg, p.o., BID × 18 days, BID(3D− 4D+) × 14 days, PG-Day 25
  ΔT/ΔC: 4%
KMS-34 cells
  type of response of KMS-34 cells: cytotoxic response

Source: patent publication US12116358B2, “Substituted indoles and methods of use thereof” (EPIZYME, INC., priority 2018, dated 2024)
